Measured values taken from patent US8785459B2, “Quinazoline compounds as kinase inhibitors” (Development Center for Biotechnology, priority 2011, dated 2014).

What was measured:
EGFR kinase = EGFR kinase (Homo sapiens (Human), UniProt P00533); assay: EGFR kinase assay; type: biochemical
Description: Inhibition of EGFR kinase activity by compounds disclosed herein is quantified by measuring the amount of [^33P] incorporated into the substrate in the presence of a test compound. Briefly, a reaction mixture of 25 μL final volume containing 25 ng of EGFR kinase (EGFR kinase domain alone, Millipore), 3 μg of the substrate [poly(Glu-Tyr), Sigma], kinase reaction buffer (10 mM MOPS pH 7.0, 0.3 mM EDTA, 0.5% glycerol, 0.001% Brij-35, 10 mM MnCl2, 0.1 mg/ml BSA, 100 μM ATP, 0.1 μCi per well [^33P]-γ-ATP (2,500-3,000 Ci/mmol)), and a test compound (100 nM, diluted with 4% DMSO) or DMSO (as the control) was incubated at 30° C. for 30 minutes. The reaction was stopped by adding 5 μL of 3% phosphoric acid solution. The resultant reaction solution was then harvested onto a filter plate (UniFilter-96 GF/B, PerkinElmer), washed 20 times for 5 min with d.d. H2O, and followed by the addition of 30 μL of MicroScint™-20 Cocktail (PerkinElmer). The radioactivity retained on the filter membrane was measured by TopCount™ scintillation detector (PerkinElmer). The results were analyzed by using linear regression software (GraphPad Prism™ 4; GraphPad Software Inc.). IC50 value is defined as the concentration of the test compound which achieves a half-maximal inhibition of the kinase activity.

VEGFR2 kinase = VEGFR2 kinase (Homo sapiens (Human), UniProt P35968); assay: VEGFR2 kinase assay; type: biochemical
Description: Inhibition of VEGFR2 kinase activity by compounds disclosed herein was quantified by measuring the amount of [^33P] incorporated into the substrate in the presence of a test compound. […] The reaction was then stopped by adding 5 μL of 3% phosphoric acid solution. The resultant solution was transferred to and harvested by a filter plate (UniFilter-96 GF/B, PerkinElmer). The filter plate was then washed 20 times with d.d. H2O for 5 min followed by the addition of 30 μL of MicroScint™-20 Cocktail (PerkinElmer). After the plate was sealed, the retained radioactivity on the filter was counted using a TopCount™ scintillation detector (PerkinElmer). […]

C-Raf = C-Raf (Homo sapiens (Human), UniProt P04049); assay: Raf kinase assay (C-Raf), [33P] incorporation into MEK1(K97R); type: biochemical
In short: (§1)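 [33P] transfer to kinase-dead MEK1(K97R) substrate (500 ng) measured after 30 min at 30 °C in Tris pH 7.5 buffer containing 8 μM ATP. Enzyme inputs were 2 ng for C-Raf and 5 ng for B-Raf and B-Raf V600E. Duplicate 3-fold serial dilutions gave the half-maximal inhibitory concentration.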

B-Raf (V600E) = B-Raf (V600E) (Homo sapiens (Human), UniProt P15056, V600E); assay: Raf kinase assay (B-Raf (V600E)), [33P] incorporation into MEK1(K97R); type: biochemical
In short: as §1

FGFR1 kinase = FGFR1 kinase (Homo sapiens (Human), UniProt P11362); assay: FGFR1 kinase assay; type: biochemical
Description: Inhibition of FGFR1 kinase activity by compounds disclosed herein was quantified by measuring the amount of [^33P] incorporated into the substrate in the presence of a test compound. Briefly, a reaction mixture of 25 μL final volume containing 1 ng of FGFR1 kinase (FGFR1 kinase domain alone, Millipore), 5 μg of the substrate [poly(Glu-Tyr), Sigma], kinase reaction buffer (14 mM MOPS pH 7.0, 0.2 mM EDTA, 0.5% glycerol, 0.001% Brij-35, 0.01% β-mercaptoethanol, 0.1 mg/ml BSA, 100 μM ATP, 0.1 μCi per well [^33P]-γ-ATP (2,500-3,000 Ci/mmol)), and a test compound (100 nM, diluted with 4% DMSO) or DMSO (as the control) was incubated at 30° C. for 60 minutes. The reaction was stopped by adding 5 μL of 3% phosphoric acid solution. The resultant reaction solution was then harvested onto a filter plate (UniFilter-96 GF/B, PerkinElmer), washed 20 times for 5 min with d.d. H2O, and followed by the addition of 30 μL of MicroScint™-20 Cocktail (PerkinElmer). The radioactivity retained on the filter membrane was measured by TopCount™ scintillation detector (PerkinElmer). The results were analyzed by using linear regression software (GraphPad Prism™ 4; GraphPad Software Inc.). IC50 value is defined as the concentration of the test compound which achieves a half-maximal inhibition of the kinase activity.

B-Raf = B-Raf (Homo sapiens (Human), UniProt P15056); assay: Raf kinase assay (B-Raf), [33P] incorporation into MEK1(K97R); type: biochemical; conditions: for inhibition at 1 µM: 1.0 μM compound, read-out: B-Raf inhibition at 1.0 μM
In short: as §1

FLT3 kinase = FLT3 kinase (Homo sapiens (Human), UniProt P36888); assay: FLT3 kinase assay; type: biochemical
Description: Inhibition of FLT3 kinase activity by compounds disclosed herein was quantified by measuring the amount of [^33P] incorporated into the substrate in the presence of a test compound. Briefly, a reaction mixture of 25 μL final volume containing 5 ng of Flt3 kinase (obtained by purifying recombinant N-terminal 6×His-tagged Flt3 kinase domain construct expressed from baculovirus), 5 μg of the substrate (Poly(Glu-Tyr, 4:1, Sigma)), kinase reaction buffer (20 mM MOPS pH 7.0, 1 mM EDTA, 5% glycerol, 0.01% Brij-35, 0.1% β-mercaptoethanol, 1 mg/mL BSA, 100 μM ATP, 0.1 μCi per well [^33P]-γ-ATP (2,500-3,000 Ci/mmol)), and a test compound (100 nM, diluted with 4% DMSO) or DMSO (as the control) was incubated at 30° C. for 30 minutes. The reaction was stopped by adding 5 μL of 3% phosphoric acid solution. The resultant reaction solution was then harvested onto a filter plate (UniFilter-96 GF/B, PerkinElmer), washed 20 times for 5 min with d.d. H2O, and followed by the addition of 30 μL of MicroScint™-20 Cocktail (PerkinElmer). The plate was then sealed and counted using a TopCount™ scintillation detector (PerkinElmer). IC50 value is defined as the concentration of the test compound which achieves a half-maximal inhibition of the kinase activity.

A549 = assay: Anti-proliferative activity, CellTiter-96 assay, A549; type: cell-based; conditions: Homo sapiens, A549 cells, 72 hours incubation
Description: (§2) Antiproliferative Activity
(§3) The anti-proliferative activities of the compounds with formula (I) and formula (II) with respect to four human cancer cell lines (A549, A375, MDA-MB-231, and COLO205) were measured using the CellTiter™-96 assay kit (Promega) following the manufacturer's instructions. In brief, the cells were maintained in DMEM containing 10% FCS and incubated at 37° C. in 5% CO2 atmosphere. Cells were plated at a density of 2000 cells/well of a 96-well plate for 24 h, then treated with different concentrations of the compounds, and incubated for another 72 hours. At the end of the incubation, CellTiter™-96 Aqueous One Solution Reagent (Promega) was added and incubated for another 4.0 hours. Cell viability was determined by measuring absorbance at 490 nm using EMax® microplate reader (Molecular Devices). Data were processed and analyzed using GraphPad Prism version 4.

MDA-MB-231 = assay: Anti-proliferative activity, CellTiter-96 assay, MDA-MB-231; type: cell-based; conditions: Homo sapiens, MDA-MB-231 cells, 72 hours incubation
Description: as §2, §3

A375 = assay: Anti-proliferative activity, CellTiter-96 assay, A375; type: cell-based; conditions: Homo sapiens, A-375, A375 cells, 72 hours incubation
Description: as §2, §3

COLO205 = assay: Anti-proliferative activity, CellTiter-96 assay, COLO205; type: cell-based; conditions: Homo sapiens, COLO 205, COLO205 cells, 72 hours incubation
Description: as §2, §3

C-Raf, sequence (P04049 whole entry): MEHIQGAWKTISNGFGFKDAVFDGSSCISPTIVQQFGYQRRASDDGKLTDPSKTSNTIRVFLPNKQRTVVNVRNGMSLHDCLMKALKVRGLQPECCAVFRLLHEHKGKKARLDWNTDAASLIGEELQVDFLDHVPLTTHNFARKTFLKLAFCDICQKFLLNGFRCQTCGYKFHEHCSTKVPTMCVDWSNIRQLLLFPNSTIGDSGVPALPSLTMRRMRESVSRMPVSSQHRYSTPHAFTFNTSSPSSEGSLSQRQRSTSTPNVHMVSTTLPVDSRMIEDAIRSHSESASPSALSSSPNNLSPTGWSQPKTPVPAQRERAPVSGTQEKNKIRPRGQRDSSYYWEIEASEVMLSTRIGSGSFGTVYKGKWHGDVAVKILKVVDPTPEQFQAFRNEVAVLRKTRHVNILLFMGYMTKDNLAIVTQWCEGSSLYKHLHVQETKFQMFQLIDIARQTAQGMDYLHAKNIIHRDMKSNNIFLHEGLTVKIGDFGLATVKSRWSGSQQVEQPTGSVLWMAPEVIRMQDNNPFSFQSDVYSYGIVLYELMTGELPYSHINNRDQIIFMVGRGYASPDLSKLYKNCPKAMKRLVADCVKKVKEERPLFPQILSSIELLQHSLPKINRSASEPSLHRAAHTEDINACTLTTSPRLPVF
B-Raf (V600E), sequence (P15056 whole entry V600E): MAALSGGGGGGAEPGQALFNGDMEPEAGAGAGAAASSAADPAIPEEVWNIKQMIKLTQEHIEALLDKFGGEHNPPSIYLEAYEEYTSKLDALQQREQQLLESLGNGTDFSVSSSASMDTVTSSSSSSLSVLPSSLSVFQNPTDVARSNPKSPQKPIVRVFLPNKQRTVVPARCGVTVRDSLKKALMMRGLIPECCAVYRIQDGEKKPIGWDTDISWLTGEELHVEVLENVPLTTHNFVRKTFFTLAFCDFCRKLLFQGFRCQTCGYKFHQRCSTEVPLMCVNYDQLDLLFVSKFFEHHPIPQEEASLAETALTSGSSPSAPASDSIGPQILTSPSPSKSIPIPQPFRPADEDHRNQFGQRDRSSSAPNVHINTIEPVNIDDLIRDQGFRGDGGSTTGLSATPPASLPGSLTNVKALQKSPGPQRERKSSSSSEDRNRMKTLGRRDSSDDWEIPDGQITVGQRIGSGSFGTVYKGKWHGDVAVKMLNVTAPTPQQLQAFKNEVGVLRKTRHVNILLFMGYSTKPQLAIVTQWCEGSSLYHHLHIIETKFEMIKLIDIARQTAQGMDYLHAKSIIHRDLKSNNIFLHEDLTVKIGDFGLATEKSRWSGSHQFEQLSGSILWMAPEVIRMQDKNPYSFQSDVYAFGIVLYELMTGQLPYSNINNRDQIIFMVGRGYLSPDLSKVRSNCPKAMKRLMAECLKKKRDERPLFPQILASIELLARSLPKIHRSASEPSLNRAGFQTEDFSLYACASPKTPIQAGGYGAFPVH
B-Raf, sequence (P15056 whole entry): as the sequence (P15056 whole entry V600E) above, with E600V counted along it
VEGFR2 kinase, sequence (P35968 834-1162): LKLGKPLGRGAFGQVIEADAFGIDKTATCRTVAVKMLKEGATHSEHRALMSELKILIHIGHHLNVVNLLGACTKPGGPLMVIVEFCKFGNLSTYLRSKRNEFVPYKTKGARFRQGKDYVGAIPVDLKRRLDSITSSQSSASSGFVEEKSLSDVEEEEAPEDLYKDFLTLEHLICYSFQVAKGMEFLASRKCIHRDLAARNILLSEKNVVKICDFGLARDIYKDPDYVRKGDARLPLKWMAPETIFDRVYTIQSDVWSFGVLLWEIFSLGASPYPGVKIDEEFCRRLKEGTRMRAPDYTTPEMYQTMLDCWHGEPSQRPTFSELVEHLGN
FGFR1 kinase, sequence (P11362 478-767): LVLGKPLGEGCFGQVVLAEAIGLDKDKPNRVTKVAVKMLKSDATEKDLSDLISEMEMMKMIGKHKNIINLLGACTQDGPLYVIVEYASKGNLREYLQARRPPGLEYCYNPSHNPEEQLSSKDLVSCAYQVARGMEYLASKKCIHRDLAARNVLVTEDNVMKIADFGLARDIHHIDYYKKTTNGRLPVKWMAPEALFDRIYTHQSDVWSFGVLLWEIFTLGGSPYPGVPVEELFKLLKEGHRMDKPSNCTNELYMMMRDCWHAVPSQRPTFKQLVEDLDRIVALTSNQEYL
EGFR kinase, sequence (P00533 712-979): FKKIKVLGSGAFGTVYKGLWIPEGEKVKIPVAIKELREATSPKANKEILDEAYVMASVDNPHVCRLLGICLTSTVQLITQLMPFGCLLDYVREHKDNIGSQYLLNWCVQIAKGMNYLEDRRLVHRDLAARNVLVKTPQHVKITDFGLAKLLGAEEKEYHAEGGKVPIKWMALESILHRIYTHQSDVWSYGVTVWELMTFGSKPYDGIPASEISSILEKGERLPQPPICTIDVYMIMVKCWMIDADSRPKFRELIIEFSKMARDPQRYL
FLT3 kinase, sequence (P36888 610-943): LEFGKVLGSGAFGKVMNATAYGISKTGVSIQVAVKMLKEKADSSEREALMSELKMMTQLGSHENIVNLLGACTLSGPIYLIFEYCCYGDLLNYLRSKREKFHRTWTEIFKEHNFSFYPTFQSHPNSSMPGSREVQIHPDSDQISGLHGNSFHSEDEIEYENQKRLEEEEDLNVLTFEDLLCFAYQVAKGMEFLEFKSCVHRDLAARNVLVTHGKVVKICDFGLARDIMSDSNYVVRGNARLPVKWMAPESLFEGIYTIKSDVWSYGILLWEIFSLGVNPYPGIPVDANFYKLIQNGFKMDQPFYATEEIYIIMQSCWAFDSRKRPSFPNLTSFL

Compound	IC50 (EGFR kinase) [nM]	IC50 (VEGFR2 kinase) [nM]	IC50 (C-Raf) [nM]	IC50 (B-Raf (V600E)) [nM]	IC50 (FGFR1 kinase) [nM]	IC50 (B-Raf) [nM]	inhibition at 1 µM (B-Raf) [%]	IC50 (FLT3 kinase) [nM]	IC50 (A549) [nM]	IC50 (MDA-MB-231) [nM]	IC50 (A375) [nM]	IC50 (COLO205) [nM]
COc1cc(-c2ccc3ncnc(Nc4ccc(O)cc4)c3c2)ccc1O [Compound 19, 4-(4-(4-hydroxyphenylamino)quinazolin-6-yl)-2-methoxyphenol]	56.4	5400	503	522	1440	557	55.8	146	–	–	–	–
COc1cc(-c2ccc3ncnc(Nc4ccc(F)c(O)c4F)c3c2)ccc1O [Compound 162, 2,6-difluoro-3-(6-(4-hydroxy-3-methoxyphenyl)quinazolin-4-ylamino)phenol]	–	–	197	4.5	–	2.9	94.6	–	2400 ± 700	2100 ± 100	1500 ± 100	5100 ± 1400
Oc1c(F)ccc(Nc2ncnc3ccc(-c4ccc5[nH]ncc5c4)cc23)c1F [Compound 163, 3-(6-(1H-indazol-5-yl)quinazolin-4-ylamino)-2,6-difluorophenol]	–	–	256	4.5	–	2.4	94.2	–	26000 ± 3200	17800 ± 200	4100 ± 700	15700 ± 2000
